# Results: article PMC3992512 (British Journal of Cancer, 2014)
# Several values for one entry are separate records, joined by “and”; a condition that tells them apart may be missing. Equal values may be shown once. Entries after “also recorded” stand apart in the source; their conditions may differ. Read-outs that look alike come from different tables or passages of the source.
# Assays:
# [1] = Plasma pharmacokinetics and tissue distribution in Capan-1 tumour-bearing mice; type: in vivo
# PARP [2] = biological target: T1, PARP (Homo sapiens, UniProt P09874); test: PARP activity in permeabilised or intact Capan-1 cells with carboxy metabolite; type: cell-based
# Capan-1 xenografts [3] = test: Efficacy study in mice bearing Capan-1 xenografts; type: in vivo
# Capan-1 xenografts [4] = conditions: ref Drew et al, 2011; cited from earlier work
# [5] = system: Poly(ADP-ribose) polymerase-1; type: in vivo, mice
# [6] = biological target: T2, Poly(ADP-ribose) polymerase-1 (Mus musculus, UniProt P11103); type: in vivo, mice; conditions: 24 h after single dose 150 mg kg−1 p.o. or 50 mg kg−1 i.p.
# MX-1 xenografts [7] = test: Efficacy study in mice bearing MX-1 xenografts; type: in vivo; conditions: MX-1 tumour-bearing mice
# PARP [8] = biological target: T1, PARP; conditions: patients, after five daily doses; ref Plummer et al, 2008; cited from earlier work
# [9] = biological target: Poly(ADP-ribose) polymerase-1 (Homo sapiens, UniProt P09874); test: PARP activity in cancer cell lines after a 30-min pulse of rucaparib; type: cell-based
# [10] = [14C]rucaparib uptake and retention in SW620 cells; type: in vitro ADME, human; conditions: human, SW620 cells
# SW620 cells = test: [14C]rucaparib uptake and retention in SW620 cells; type: in vitro ADME, human; conditions: for effect of transport inhibitor on rucaparib uptake: ouabain 30 or 100 μM, cytochalasin B 0.1 or 1 μM, dipyridamole 10 or 100 μM, BCH 1 or 2 mM
# [11] = system: Poly(ADP-ribose) polymerase-1; test: in vivo; type: in vivo, mice; conditions: for PARP activity in tumours, % of control: 7 days
# [12] = biological target: T2, Poly(ADP-ribose) polymerase-1; test: in vivo; type: in vivo, mice
# MX-1 xenografts [13] = conditions: ref Shen et al, 2013, cited from earlier work
# [14] = pre-clinical studies; ref Calabrese et al, 2004; cited from earlier work
# [15] = 10 mg kg−1 i.p. daily × five weekly × six
# [16] = Capan-1 and MX-1 cells, 30-min pulse with 400 nM
# [17] = SW620 cells, 400 nM [14C]rucaparib
# T2 sequence (P11103 2-1013): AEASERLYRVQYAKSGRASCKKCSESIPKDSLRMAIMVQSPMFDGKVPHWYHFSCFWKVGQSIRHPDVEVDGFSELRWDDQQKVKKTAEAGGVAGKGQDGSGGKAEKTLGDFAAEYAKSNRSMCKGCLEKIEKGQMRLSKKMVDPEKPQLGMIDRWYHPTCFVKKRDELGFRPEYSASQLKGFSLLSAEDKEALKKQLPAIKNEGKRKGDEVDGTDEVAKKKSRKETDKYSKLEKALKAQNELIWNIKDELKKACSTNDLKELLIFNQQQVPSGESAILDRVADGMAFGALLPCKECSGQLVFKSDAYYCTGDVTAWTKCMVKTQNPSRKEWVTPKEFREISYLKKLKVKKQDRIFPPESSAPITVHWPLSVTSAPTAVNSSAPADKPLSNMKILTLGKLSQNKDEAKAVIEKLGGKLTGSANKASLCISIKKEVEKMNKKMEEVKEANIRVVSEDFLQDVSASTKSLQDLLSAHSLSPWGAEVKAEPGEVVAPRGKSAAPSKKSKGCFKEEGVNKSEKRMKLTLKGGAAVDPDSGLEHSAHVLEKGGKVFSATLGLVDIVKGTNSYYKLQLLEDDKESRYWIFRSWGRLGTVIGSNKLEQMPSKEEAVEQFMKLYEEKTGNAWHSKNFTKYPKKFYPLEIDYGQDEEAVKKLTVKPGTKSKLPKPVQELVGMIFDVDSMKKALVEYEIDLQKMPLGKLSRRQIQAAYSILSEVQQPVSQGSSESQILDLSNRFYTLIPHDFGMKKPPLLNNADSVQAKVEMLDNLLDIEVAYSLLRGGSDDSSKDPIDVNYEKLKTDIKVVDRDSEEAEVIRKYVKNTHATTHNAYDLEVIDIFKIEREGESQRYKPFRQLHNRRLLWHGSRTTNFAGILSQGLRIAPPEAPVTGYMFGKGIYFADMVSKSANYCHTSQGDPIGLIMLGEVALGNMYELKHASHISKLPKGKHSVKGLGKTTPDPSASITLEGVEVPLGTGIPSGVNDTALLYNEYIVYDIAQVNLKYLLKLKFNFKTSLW
# Sequence of Poly(ADP-ribose) polymerase-1 (Homo sapiens, UniProt P09874) (P09874 whole entry): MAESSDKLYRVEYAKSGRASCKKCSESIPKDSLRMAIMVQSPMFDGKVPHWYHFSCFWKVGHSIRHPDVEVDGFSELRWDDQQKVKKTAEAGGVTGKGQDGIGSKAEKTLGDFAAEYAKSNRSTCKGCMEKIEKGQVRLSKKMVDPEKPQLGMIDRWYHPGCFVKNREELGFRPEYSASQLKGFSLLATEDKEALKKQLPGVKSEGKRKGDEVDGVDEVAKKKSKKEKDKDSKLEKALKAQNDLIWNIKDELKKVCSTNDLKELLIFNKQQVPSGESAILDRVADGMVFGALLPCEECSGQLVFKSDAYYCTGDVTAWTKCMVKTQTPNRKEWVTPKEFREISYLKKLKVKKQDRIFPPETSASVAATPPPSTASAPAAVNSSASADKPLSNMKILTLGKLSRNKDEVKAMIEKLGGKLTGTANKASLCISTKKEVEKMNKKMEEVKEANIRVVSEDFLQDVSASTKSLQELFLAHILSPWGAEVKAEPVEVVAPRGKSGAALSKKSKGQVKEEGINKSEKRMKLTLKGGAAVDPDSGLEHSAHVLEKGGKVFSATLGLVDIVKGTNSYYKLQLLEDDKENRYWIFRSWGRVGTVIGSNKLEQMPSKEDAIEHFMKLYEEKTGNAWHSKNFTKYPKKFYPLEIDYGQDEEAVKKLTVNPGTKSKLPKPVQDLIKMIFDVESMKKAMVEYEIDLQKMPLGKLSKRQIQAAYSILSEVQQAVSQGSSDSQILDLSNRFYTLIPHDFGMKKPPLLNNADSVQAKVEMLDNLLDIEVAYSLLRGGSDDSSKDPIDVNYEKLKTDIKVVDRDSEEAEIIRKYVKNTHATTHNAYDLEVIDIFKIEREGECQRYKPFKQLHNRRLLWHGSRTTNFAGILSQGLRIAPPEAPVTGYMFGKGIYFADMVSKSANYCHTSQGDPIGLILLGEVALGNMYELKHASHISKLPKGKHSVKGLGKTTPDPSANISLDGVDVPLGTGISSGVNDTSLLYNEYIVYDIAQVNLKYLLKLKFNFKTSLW
# T1 sequence (P09874 whole entry): as above
compound,measurement,setting,value
"O=C(O)c1ccc(-c2[nH]c3cc(F)cc4c3c2CCNC4=O)cc1 [4-(8-fluoro-6-oxo-3,4,5,6-tetrahydro-1H-azepino[5,4,3-cd]indol-2-yl)benzoic acid]",metabolite concentration relative to parent drug in plasma,[1]; after single dose of rucaparib,higher concentrations than the parent drug in the plasma
same,metabolite concentration relative to parent drug in tumour,[1]; after single dose of rucaparib,lower in the tumour
same,PARP inhibition after pre-incubation of intact cells,PARP [2],did not result in PARP inhibition
CNCc1ccc(-c2[nH]c3cc(F)cc4c3c2CCNC4=O)cc1 [rucaparib],partial regressions,Capan-1 xenografts [3]; [15],two persistent partial regressions
same,time to quadruple in volume (RTV4),Capan-1 xenografts [3]; [15],not reached during the 50-day trial
same,Complete regressions,"Capan-1 xenografts [3]; 10 mg kg−1 i.p., d × 5 w × 6",1/10
same,Mice remaining at day 40,"Capan-1 xenografts [3]; 10 mg kg−1 i.p., d × 5 w × 6",6
same,Complete regressions,"Capan-1 xenografts [3]; 10 mg kg−1 i.p., d × 5 w × 6, listed as Rucaparib",one complete tumour regression
same,Complete regressions,"Capan-1 xenografts [3]; 50 mg kg−1 p.o., d × 5 w × 6",0/10
same,Mice remaining at day 40,"Capan-1 xenografts [3]; 50 mg kg−1 p.o., d × 5 w × 6",2
same,effect on tumour growth,Capan-1 xenografts [3]; 150 mg kg−1 p.o. daily × five weekly × six,equivalent effect on tumour growth to 10 mg kg^−1 i.p.
same,antitumour effect of once weekly schedule,"Capan-1 xenografts [3]; 150 mg kg−1 p.o. once a week for 6 weeks, compared with other schedules",as effective as; also recorded: greatest antitumour effect
same,Complete regressions,"Capan-1 xenografts [3]; 150 mg kg−1 p.o., 1 × w × 6",three complete regressions and 3/10
same,Mice remaining at day 40,"Capan-1 xenografts [3]; 150 mg kg−1 p.o., 1 × w × 6",7
same,Complete regressions,"Capan-1 xenografts [3]; 150 mg kg−1 p.o., 3 × w × 6",1/10
same,Mice remaining at day 40,"Capan-1 xenografts [3]; 150 mg kg−1 p.o., 3 × w × 6",5
same,Complete regressions,"Capan-1 xenografts [3]; 150 mg kg−1 p.o., d × 5 w × 6",1/10
same,Mice remaining at day 40,"Capan-1 xenografts [3]; 150 mg kg−1 p.o., d × 5 w × 6",5
same,Complete regressions,"Capan-1 xenografts [3]; 150 mg kg−1 p.o., dx5 every 3w",1/10
same,Mice remaining at day 40,"Capan-1 xenografts [3]; 150 mg kg−1 p.o., dx5 every 3w",5
same,weight loss,"Capan-1 xenografts [3]; Capan-1 tumour-bearing mice, any of the schedules",no significant weight loss
same,effect on tumour growth,Capan-1 xenografts [3]; other dosing schedules incl. 150 mg kg−1 p.o. daily for five days every 3 weeks,only marginal effect on tumour growth
same,efficacy of daily for 5 days every week for 6 weeks vs once a day for 10 days,Capan-1 xenografts [4],more effective
same,PARP inhibition in MX-1 tumours,[5]; 24 h after single dose 50 mg kg−1 i.p.,> 55%
same,PARP inhibition in MX-1 tumours,[5]; 24 h after single dose 150 mg kg−1 p.o.,> 80%
same,PARP inhibition in MX-1 tumours,[5]; 3 days after 150 mg kg−1,87–92%
same,PARP inhibition in MX-1 tumours,[5]; 7 days after 150 mg kg−1,44–74%
same,PARP inhibition in livers,[6],not in the livers; also recorded: recovered completely within 24 h
same,weight loss at nadir,MX-1 xenografts [7],≤ 4%
same,dose linearity,[1]; mice,apparent dose linearity
same,rucaparib in tumour at 3 days,[1]; oral rucaparib,still detectable in most mice
same,time at which parent drug detectable in plasma,"[1]; single dose 10 mg kg−1 i.p., all three mice per group",30 min
same,time up to which parent drug detectable in plasma,"[1]; single dose 50–150 mg kg−1 p.o., all three mice per group",up to 4 h
same,PARP activity in peripheral blood mononuclear cells,PARP [8],still suppressed 3 days after the final of five daily doses
same,PARP activity 1 week after drug removal,[9]; [16],still below baseline
same,persistence of PARP inhibition after pulse,[9]; [16],72 h
same,remaining activity at 0.4 µM,"[9]; SW-620, read-out: PARP activity, % of control",35 ± 12%
same,inhibition at 0.4 µM,"[9]; read-out: PARP inhibition, human cancer cell lines (SW620, Capan-1, MX-1), for at least 72 h after 30-min pulse of 400 nM",≥ 50%
same,PARP activity below baseline 1 week after initial exposure,"[9]; where measured, 30-min pulse",≥ 30%
same,half-life,[10],20 min
same,rucaparib lost by efflux in the first 5–10 min,SW620 cells; SW620 cells after 30-min pulse with 400 nM,up to 50%
same,intracellular concentration,"SW620 cells; SW620 cells exposed to 400 nM [14C]rucaparib, steady state",> 10 µM
same,time to steady-state intracellular level,SW620 cells; [17],≤ 30 min
same,Vmax of rucaparib uptake,"SW620 cells; SW620 cells, 30 min exposure, mean and s.d. of three independent experiments",469±22 pmol per 10^6 cells per 10 min
same,uptake with sodium buffer replaced by potassium buffer,"SW620 cells; SW620 cells, transport buffer",reduced uptake slightly
same,uptake with sodium replaced by choline,"SW620 cells; SW620 cells, transport buffer",no effect
same,PARP inhibition in Capan-1 tumours,[11]; 7 days following single dose 10 mg kg−1 i.p.,70%
same,PARP inhibition in Capan-1 tumours,[11]; 7 days following single dose 150 mg kg−1 p.o.,90%
same,"PARP activity in tumours, % of control",[11]; single dose 50 mg kg−1 p.o.,~10%
same,"PARP activity in tumours, % of control",[11]; single dose 150 mg kg−1 p.o.,~10%
same,"PARP activity in tumours, % of baseline","[11]; after 48 h, 10 mg kg−1 i.p.",~30%
same,"PARP activity in tumours, % of baseline","[11]; between 30 min and 24 h, all doses and routes (10 mg kg−1 i.p.; 50, 100, 150 mg kg−1 p.o.)",< 20%
same,"PARP activity in PBMCs, % of control",[12]; 24 h after single dose 10 mg kg−1 i.p.,> 35%
same,inhibition at 10 mg/kg,"[12]; CAPAN-1, mouse, ip, read-out: initial PARP inhibition in brain",~50%
same,reduction in brain PARP activity,"[12]; oral dosage, 4 h",> 60%
same,"brain PARP activity after recovery, % of baseline","[12]; oral dosage, after 4 h up to 7 days",70–80%
same,PARP activity in PBMCs up to 6 h post-administration,[12]; single dose 10 mg kg−1 i.p.,profound suppression
NC1(C(=O)O)CC2CCC1C2 (stereo not shown) [BCH],effect of transport inhibitor on rucaparib uptake,SW620 cells; [17],"neither the nucleoside transport inhibitor, dipyridamole, nor the amino-acid transport inhibitor, BCH, inhibited accumulation"
O=C(c1cc(Cc2n[nH]c(=O)c3ccccc23)ccc1F)N1CCN(C(=O)C2CC2)CC1 [olaparib],efficacy against MX-1 xenografts,MX-1 xenografts [13]; 100 mg kg−1 daily for 28 days,completely ineffective
OCCN(CCO)c1nc(N2CCCCC2)c2nc(N(CCO)CCO)nc(N3CCCCC3)c2n1 [dipyridamole],effect of transport inhibitor on rucaparib uptake,SW620 cells; [17],"neither the nucleoside transport inhibitor, dipyridamole, nor the amino-acid transport inhibitor, BCH, inhibited accumulation"
Cn1ncnc1[C@H]1c2n[nH]c(=O)c3cc(F)cc(c23)N[C@@H]1c1ccc(F)cc1 [BMN 673],efficacy against MX-1 xenografts,MX-1 xenografts [13]; once or twice daily administration,regressions of MX-1 xenografts
CN(C)Cc1ccc(-c2nc3cccc4c3n2CCNC4=O)cc1 [AG14361],tumour distribution and retention,[14],distributed well to the tumour and was retained in the tumour after clearance from the plasma
C=C1[C@@H](C)[C@H]2[C@H](Cc3ccccc3)NC(=O)[C@]23OC(=O)/C=C/[C@H](O)CCC[C@@H](C)C/C=C/[C@H]3[C@@H]1O [cytochalasin B],effect of transport inhibitor on rucaparib uptake,SW620 cells; [17],no effect on uptake
C[C@@H]1O[C@@H](O[C@H]2C[C@@H](O)[C@]3(CO)[C@H]4[C@H](O)C[C@]5(C)[C@@H](C6=CC(=O)OC6)CC[C@]5(O)[C@@H]4CC[C@]3(O)C2)[C@H](O)[C@H](O)[C@H]1O [Ouabain],effect of transport inhibitor on rucaparib uptake,SW620 cells; [17],only a very modest effect
